What was measured:
[1] = target: truncated XIAP containing only BIR1, BIR2, and BIR3 domains (Homo sapiens, UniProt P98170); test: Fluorescent polarization (FP) assay; type: binding
Method: Increasing concentrations of Smac compounds are incubated with 2 nM of labeled peptide (fluorescein labeled 10mer peptide with AVPI 4 amino acids at its N terminus-Alexa Fluor 488) and truncated XIAP containing only BIR1, BIR2, and BIR3 domains at room temperature for 1 hour. Fluorescence reading, indicative of the bound portion of the labeled peptide, is measured in milipolarization units (mP). The more compound added, less fluorescein labeled peptide bind to the protein due to the competitive binding and less fluorescence signal is released.
Based on this principle, we obtain the Ki value that evaluates compound's binding affinity.

HCC461 cells = test: Cell viability assay in HCC461 cells (WST-1); type: cell-based; details: 48 hrs incubation
Method: HCC461 cells plated in 96 well plates at 5×10^4/ml cell density are treated with 50× synthetic Smac mimetic compounds (final concentration range between 30 uM and 0.001 uM). After 48 hrs incubation at 37° C. and 5% CO2 viability of the cells are measured using Cell Proliferation Reagent WST-1 assay kit (Roche Cat #11 644 807 001).
WST-1 assay principle: The tetrazolium salts are cleaved to formazan by cellular enzymes. An expansion in the number of viable cells results in an increase in the overall activity of mitochondrial dehydrogenases in the samples. This augmentation in the enzyme activity leads to an increase in the amount of formazan dye formed, which directly correlates to the number of metabolically active cells in the culture. Quantification of the formazan dye produced by metabolically active cells by using a microplate (ELISA) reader at 420-480 nm.

[2] = tested on: Caspase3 activity in Hela S100 (blocked by IAPs); test: In vitro caspase-3 activation assay in Hela S100; type: biochemical; details: 100 nM compound, activity compared with reference compound, Table 1 experiment
Method: Caspase3 in most cell extracts can be activated by the addition of 1 mM dATP through the mitochondria caspase pathway. […] Taking advantage of this feature, we use 100 nM of synthetic Smac mimetic compound to test its ability to eliminate IAPs in the Hela S100 and fully induce Caspase3 activity. The In Vitro Caspase3 assay is carried out at 30° C., incubating 100 nM compounds with 30 ug of Hela S100, 1 mM dATP, 10 uM Caspase3 fluorogenic substrate (Caspase3 Substrate II, Fluorogenic, #235425 from Calbiochem). The readout is caspase-3 activity represented by relative fluorogenic unit, which is recorded kinetically. The slope in linear region of the curve for each compound is calculated.
Percent activity data is presented by comparing activity of the test compound with activity of the reference compound in Caspase-3 activation assay in vitro. The ratio of each synthetic compound's slope versus the slope of control reflects in vitro caspase-3 activation ability of compounds.

[3] = HCC461, 48 h, Table 1 experiment
[4] = HCC461, 48 h, Table 2 experiment

truncated XIAP containing only BIR1, BIR2, and BIR3 domains, sequence (P98170 26-330 limits assumed): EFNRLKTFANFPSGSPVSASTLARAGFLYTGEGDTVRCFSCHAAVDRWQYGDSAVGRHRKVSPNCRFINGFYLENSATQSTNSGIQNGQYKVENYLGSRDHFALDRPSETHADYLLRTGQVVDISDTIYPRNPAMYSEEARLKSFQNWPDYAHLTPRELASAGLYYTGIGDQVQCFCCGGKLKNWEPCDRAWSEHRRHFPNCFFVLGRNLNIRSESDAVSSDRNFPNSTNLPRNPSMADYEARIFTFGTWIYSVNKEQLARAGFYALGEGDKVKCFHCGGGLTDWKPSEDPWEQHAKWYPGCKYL

Compound	Ki ([1]; Table 1 experiment) [µM]	IC50 (HCC461 cells; [3]) [µM]	Ki ([1]; Table 2 experiment) [µM]	IC50 (HCC461 cells; [4]) [µM]	% Activity at 100 nM [2] [%]	also measured
CN[C@@H](C)C(=O)NC(C(=O)C1C[C@@H](NC(=O)C2CCCC2C(=O)N[C@H]2CC(C(=O)N[C@@H]3CCCc4ccccc43)N(C(=O)[C@@H](NC(=O)[C@H](C)NC)C(C)(C)C)C2)CC1C(=O)N[C@@H]1CCCc2ccccc21)C(C)(C)C.Cl.Cl (single isomer, unassigned) [compound 17]	0.5	0.019				% Activity at 100 nM ([2]; 0.1 µM): 92%
CN[C@@H](C)C(=O)NC(C(=O)C1C[C@@H](NC(=O)C2CCCC2C(=O)N[C@H]2CC(C(=O)N[C@@H]3CCCc4ccccc43)N(C(=O)[C@@H](NC(=O)[C@H](C)NC)C(C)(C)C)C2)CC1C(=O)N[C@@H]1CCCc2ccccc21)C(C)(C)C.Cl.Cl (single isomer, unassigned) [compound 18]	0.35					IC50 (HCC461 cells; Table 1 experiment): 0.033 µM; % Activity at 100 nM ([2]; 0.1 µM): 107%
CN[C@@H](C)C(=O)N[C@@H](CC#CC#CC[C@H](NC(=O)[C@H](C)NC)C(=O)N1CCC[C@H]1C(=O)N[C@@H]1CCCc2ccccc21)C(=O)N1CCC[C@H]1C(=O)N[C@@H]1CCCc2ccccc21.Cl.Cl [Ref cpd, reference compound]	0.35	0.082	0.15	0.063	100	
CN[C@@H](C)C(=O)N[C@H](C(=O)N1C[C@@H](NC(=O)c2ccc(C(=O)N[C@H]3C[C@@H](C(=O)N[C@@H]4CCCc5ccccc54)N(C(=O)[C@@H](NC(=O)[C@H](C)NC)C(C)(C)C)C3)s2)C[C@H]1C(=O)N[C@@H]1CCCc2ccccc21)C(C)(C)C.Cl.Cl [compound 12]	0.4	0.002			104	
CN[C@@H](C)C(=O)N[C@H](C(=O)N1C[C@@H](NS(=O)(=O)c2cccc(S(=O)(=O)N[C@H]3C[C@@H](C(=O)N[C@@H]4CCCc5ccccc54)N(C(=O)[C@@H](NC(=O)[C@H](C)NC)C(C)(C)C)C3)c2)C[C@H]1C(=O)N[C@@H]1CCCc2ccccc21)C(C)(C)C.Cl.Cl [compound 13]	0.3	0.026			108	
CN[C@@H](C)C(=O)N[C@H](C(=O)N1C[C@@H](NC(=O)c2cc(O)cc(C(=O)N[C@H]3C[C@@H](C(=O)N[C@@H]4CCCc5ccccc54)N(C(=O)[C@@H](NC(=O)[C@H](C)NC)C(C)(C)C)C3)c2)C[C@H]1C(=O)N[C@@H]1CCCc2ccccc21)C(C)(C)C.Cl.Cl [compound 14]	0.44	0.026			86	
CN[C@@H](C)C(=O)N[C@H](C(=O)N1C[C@@H](NC(=O)c2cc(C(=O)N[C@H]3C[C@@H](C(=O)N[C@@H]4CCCc5ccccc54)N(C(=O)[C@@H](NC(=O)[C@H](C)NC)C(C)(C)C)C3)[nH]n2)C[C@H]1C(=O)N[C@@H]1CCCc2ccccc21)C(C)(C)C.Cl.Cl [compound 15]	0.45	0.009			116	
CN[C@@H](C)C(=O)N[C@H](C(=O)N1C[C@@H](NC(=O)CN(C)CC(=O)N[C@H]2C[C@@H](C(=O)N[C@@H]3CCCc4ccccc43)N(C(=O)[C@@H](NC(=O)[C@H](C)NC)C(C)(C)C)C2)C[C@H]1C(=O)N[C@@H]1CCCc2ccccc21)C(C)(C)C.Cl.Cl.Cl [compound 16]	0.4	0.074			115	
CN[C@@H](C)C(=O)NC(C(=O)C1C[C@@H](NC(=O)c2cccc(C(=O)N[C@H]3CC(C(=O)N[C@@H]4CCCc5ccccc54)N(C(=O)[C@@H](NC(=O)[C@H](C)NC)C(C)(C)C)C3)c2)CC1C(=O)N[C@@H]1CCCc2ccccc21)C(C)(C)C.Cl.Cl (stereo partly shown) [compound 19]	0.45	0.007			120	
C#CC[C@H](NC(=O)[C@H](C)NC)C(=O)N1C[C@@H](NC(=O)c2cccc(C(=O)N[C@H]3C[C@@H](C(=O)N[C@@H]4CCCc5ccccc54)N(C(=O)[C@H](CC#C)NC(=O)[C@H](C)NC)C3)n2)C[C@H]1C(=O)N[C@@H]1CCCc2ccccc21 [compound 20]		0.222				
CN[C@@H](C)C(=O)N[C@H](C(=O)N1C[C@@H](NC(=O)[C@H](O)[C@@H](O)C(=O)N[C@H]2C[C@@H](C(=O)N[C@@H]3CCCc4ccccc43)N(C(=O)[C@@H](NC(=O)[C@H](C)NC)C(C)(C)C)C2)C[C@H]1C(=O)N[C@@H]1CCCc2ccccc21)C(C)(C)C [compound 21]		0.101				
C#CC[C@H](NC(=O)[C@H](C)NC)C(=O)N1C[C@@H](NC(=O)[C@H](O)[C@@H](O)C(=O)N[C@H]2C[C@@H](C(=O)N[C@@H]3CCCc4ccccc43)N(C(=O)[C@H](CC#C)NC(=O)[C@H](C)NC)C2)C[C@H]1C(=O)N[C@@H]1CCCc2ccccc21 [compound 22]		0.263				
CN[C@@H](C)C(=O)NC(C(=O)C1C[C@@H](NC(=O)C2CCCC2C(=O)N[C@H]2CC(C(=O)N[C@@H]3CCCc4ccccc43)N(C(=O)[C@@H](NC(=O)[C@H](C)NC)C(C)(C)C)C2)CC1C(=O)N[C@@H]1CCCc2ccccc21)C(C)(C)C (stereo partly shown) [compound 23]			0.05			IC50 (HCC461 cells; Table 2 experiment): 0.002 µM
CN[C@@H](C)C(=O)NC(C(=O)C1C[C@@H](NC(=O)C2CCCC2C(=O)N[C@H]2CC(C(=O)N[C@@H]3CCCc4ccccc43)N(C(=O)[C@@H](NC(=O)[C@H](C)NC)C(C)(C)C)C2)CC1C(=O)N[C@@H]1CCCc2ccccc21)C(C)(C)C (stereo partly shown) [compound 24]			0.35			IC50 (HCC461 cells; Table 2 experiment): 0.021 µM
CN[C@@H](C)C(=O)NC(C(=O)C1C[C@@H](NC(=O)C2CCCC(C(=O)N[C@H]3CC(C(=O)N[C@@H]4CCCc5ccccc54)N(C(=O)[C@@H](NC(=O)[C@H](C)NC)C(C)(C)C)C3)C2)CC1C(=O)N[C@@H]1CCCc2ccccc21)C(C)(C)C (stereo partly shown) [compound 25]			0.25	0.024		
CN[C@@H](C)C(=O)N[C@H](C(=O)N1C[C@@H](NC(=O)CC(C)(O)CC(=O)N[C@H]2C[C@@H](C(=O)N[C@@H]3CCCc4ccccc43)N(C(=O)[C@@H](NC(=O)[C@H](C)NC)C(C)(C)C)C2)C[C@H]1C(=O)N[C@@H]1CCCc2ccccc21)C(C)(C)C [compound 26]			0.32	0.023		
CN[C@@H](C)C(=O)N[C@H](C(=O)N1C[C@@H](NC(=O)COCC(=O)N[C@H]2C[C@@H](C(=O)N[C@@H]3CCCc4ccccc43)N(C(=O)[C@@H](NC(=O)[C@H](C)NC)C(C)(C)C)C2)C[C@H]1C(=O)N[C@@H]1CCCc2ccccc21)C(C)(C)C [compound 27]			0.25	0.082		
CN[C@@H](C)C(=O)N[C@H](C(=O)N1C[C@@H](NC(=O)c2c(F)c(F)c(F)c(C(=O)N[C@H]3C[C@@H](C(=O)N[C@@H]4CCCc5ccccc54)N(C(=O)[C@@H](NC(=O)[C@H](C)NC)C(C)(C)C)C3)c2F)C[C@H]1C(=O)N[C@@H]1CCCc2ccccc21)C(C)(C)C [compound 28]			0.23	0.002		
CN[C@@H](C)C(=O)N[C@H](C(=O)N1C[C@@H](NC(=O)C23CC4CC(C2)CC(C(=O)N[C@H]2C[C@@H](C(=O)N[C@@H]5CCCc6ccccc65)N(C(=O)[C@@H](NC(=O)[C@H](C)NC)C(C)(C)C)C2)(C4)C3)C[C@H]1C(=O)N[C@@H]1CCCc2ccccc21)C(C)(C)C [compound 29]			0.24	0.005		
CN[C@@H](C)C(=O)N[C@H](C(=O)N1C[C@@H](NC(=O)[C@H]2CC[C@@](C)(C(=O)N[C@H]3C[C@@H](C(=O)N[C@@H]4CCCc5ccccc54)N(C(=O)[C@@H](NC(=O)[C@H](C)NC)C(C)(C)C)C3)C2(C)C)C[C@H]1C(=O)N[C@@H]1CCCc2ccccc21)C(C)(C)C [compound 30]			0.29	0.008		
CN[C@@H](C)C(=O)N[C@H](C(=O)N1C[C@@H](NC(=O)[C@@H]2CC[C@](C)(C(=O)N[C@H]3C[C@@H](C(=O)N[C@@H]4CCCc5ccccc54)N(C(=O)[C@@H](NC(=O)[C@H](C)NC)C(C)(C)C)C3)C2(C)C)C[C@H]1C(=O)N[C@@H]1CCCc2ccccc21)C(C)(C)C [compound 31]			0.34	0.003		
CN[C@@H](C)C(=O)N[C@H](C(=O)N1C[C@@H](NC(=O)c2cc(N)cc(C(=O)N[C@H]3C[C@@H](C(=O)N[C@@H]4CCCc5ccccc54)N(C(=O)[C@@H](NC(=O)[C@H](C)NC)C(C)(C)C)C3)c2)C[C@H]1C(=O)N[C@@H]1CCCc2ccccc21)C(C)(C)C [compound 32]			0.23	0.015		

— patent US8642554B2, “Smac mimetic dimers and trimers useful as anti-cancer agents” (Joyant Pharmaceuticals, Inc., priority 2007, dated 2014)
